Test results from patent publication US9102617B2, “Antimicrobial agents” (Rutgers, The State University of New Jersey, priority 2010, dated 2015).
In brackets after ≈: the same amount, converted by molar mass.

How the values were obtained:
[1] = test system: methicillin-sensitive Staphylococcus aureus (MSSA); experiment: Planktonic antibacterial broth microdilution assay (Test C), MIC vs MSSA; assay type: cell-based; conditions: 37° C., growth read after 24 to 48 hours at OD 600 nm
Experimental: (§1) Test C. Planktonic (Free-Living) Antibacterial Assay.
(§2) Planktonic antibacterial activity can be determined using a broth microdilution assay in which log-phase bacteria are grown at 37° C. in appropriate medium containing two-fold serial dilutions of a compound to yield a final concentration ranging from 256 to 0.1 μg/ml. For determination of minimal inhibitory concentration (MIC) values, bacterial growth is monitored after 24 to 48 hours by measuring optical density at 600 nm. […] The minimal inhibitory concentration against methicillin-sensitive Staphylococcus aureus (MSSA) for each of the following representative compounds of the invention was determined to be less than 32 μg/ml.

[2] = test system: methicillin-resistant Staphylococcus aureus (MRSA); experiment: Planktonic antibacterial broth microdilution assay (Test C), MIC vs MRSA; assay type: cell-based; conditions: broth microdilution, 37° C., growth read after 24 to 48 hours at OD 600 nm, read-out: MIC vs MRSA
Experimental: as §1, §2
Representative compounds of the invention were also tested against methicillin-resistant Staphylococcus aureus, vancomycin-resistant Enterococcus faecalis and Enterococcus faecium (VRE), vancomycin-sensitive Enterococcus faecalis and Enterococcus faecium (VSE).

Row | SMILES | MIC [1] [µg/mL] | MIC [2] [µg/mL]
1 | C[n+]1c(-c2ccccc2)ccc2ccccc21.[I-] [Comparative Example B, reference compound] | > 64 | 
2 | COc1cc(-c2cc3ccccc3[n+](C)c2)cc(-c2ccc(F)cc2)c1OC.[I-] [Example 4] | 16 | 
3 | CC(C)(C)c1ccc(-c2cccc3cc(-c4ccc(C(=O)O)cc4CN)ccc23)cc1.Cl [Example 88] | > 64 | 
4 | C[n+]1cccc2ccccc21.[I-] [Comparative Example A, reference compound] | > 64 | 
5 | C[n+]1cccc2cccc(-c3ccc(-c4ccccc4)cc3)c21.[I-] [Example 118] | 16 | 
6 | CNCc1cc(C(=O)O)ccc1-c1ccc2c(-c3ccc(C(C)(C)C)cc3)cccc2c1.Cl [Example 87] | ≤ 8 | 
7 | CN(C)Cc1cc(C(=O)O)ccc1-c1ccc2c(-c3ccc(C(C)(C)C)cc3)cccc2c1.Cl [Example 85] | ≤ 8 | 
8 | CNCc1cc(C(=O)OC)ccc1-c1ccc2c(-c3ccc(C(C)(C)C)cc3)cccc2c1 [Example 86, methyl 4-(1-(4-t-butylphenyl)naphthalen-6-yl)-3-((methylamino)methyl)benzoate] | ≤ 8 | 
9 | Cc1cc(C(F)(F)F)ccc1-c1cccc2c(CN=C(N)N)cccc12 [Example 47] | ≤ 8 | 
10 | C[n+]1cccc2c(-c3ccc(-c4ccccc4)cc3)cccc21.[I-] [Example 122] | ≤ 8 | 
11 | COc1cc2cc(-c3cc(OC)c(OC)c(-c4ccc(C(C)(C)C)cc4)c3)c[n+](C)c2cc1OC.[I-] [Example 16] | ≤ 8 | 
12 | C[N+](C)(C)c1ccc(-c2ccc3c(-c4ccc(-c5ccccc5)cc4)cccc3c2)cc1.[I-] [Example 95] | ≤ 8 | 
13 | COc1cc2cc(-c3cc(OC)c(OC)c(-c4ccc(C5CCCCC5)cc4)c3)c[n+](C)c2cc1OC.[I-] [Example 21] | ≤ 8 | 
14 | C[n+]1cc(-c2ccc(-c3ccccc3)cc2)c2ccccc2c1.[I-] [Example 107] | ≤ 8 | 
15 | C[N+](C)(C)c1ccc(-c2ccc3c(-c4cccc(-c5ccccc5)c4)cccc3c2)cc1.[I-] [Example 69] | ≤ 8 | 
16 | CCC[n+]1cc(-c2cc(OC)c(OC)c(-c3ccc(-c4ccccc4)cc3)c2)cc2cc(OC)c(OC)cc21.[I-] [Example 14] | ≤ 8 | 
17 | N=C(N)NCCc1cccc2c(-c3ccc(C(F)(F)F)cc3)cccc12 [Example 55] | ≤ 8 | 
18 | COc1cc(C(F)(F)F)ccc1-c1cccc2c(CCN)cccc12 [Example 44, 2-(5-(2-Methoxy-4-(trifluoromethyl)phenyl)naphthalen-1-yl)ethanamine] | ≤ 8 | 
19 | COc1cc2cc(-c3cc(OC)c(OC)c(-c4ccc(-c5ccccc5)cc4)c3)c[n+](C)c2cc1OC.[I-] [Example 13] | ≤ 8 | 
20 | C[N+](C)(C)Cc1cccc(-c2ccc3c(-c4cccc(-c5ccccc5)c4)cccc3c2)c1.[I-] [Example 72] | ≤ 8 | 
21 | CN(C)Cc1ccccc1-c1ccc2c(-c3ccc(C(C)(C)C)cc3)cccc2c1 [Example 60, (2-(1-(4-t-butylphenyl)naphthalen-6-yl)phenyl)-N,N-dimethylmethanamine] | 32 (≈ 81.3 µM) | 
22 | N=C(N)NCc1ccccc1-c1ccc2c(-c3cccc(-c4ccccc4)c3)cccc2c1 [Example 105] | ≤ 8 | 
23 | C[n+]1cc(-c2cc(F)c(F)c(-c3ccc(-c4ccccc4)cc3)c2)cc2ccccc21.[I-] [Example 33] | ≤ 8 | 
24 | C[N+](C)(C)c1ccc(-c2ccc3c(-c4ccc(F)cc4)cccc3c2)cc1.[I-] [Example 76] | ≤ 8 | 
25 | COc1cc(-c2cc3cc4c(cc3[n+](C(C)C)c2)OCO4)cc(-c2ccc(-c3ccccc3)cc2)c1OC.[I-] [Example 25] | ≤ 8 | 
26 | COc1cc2c(-c3ccc(-c4ccccc4)cc3)ccc([N+](C)(C)C)c2cc1OC.[I-] [Example 50] | ≤ 8 | 
27 | COc1cc(C(F)(F)F)ccc1-c1cccc2c(CN=C(N)N)cccc12 [Example 43] | ≤ 8 | 

Results, then the molecule that gave them:

Row | MIC [1] [µg/mL] | MIC [2] [µg/mL] | SMILES
28 | ≤ 8 |  | COc1ccc(CNC(=N)N)c(-c2ccc3c(-c4ccc(C(C)(C)C)cc4)cccc3c2)c1OC [Example 102]
29 | ≤ 8 |  | C[N+](C)(C)c1cccc(-c2ccc3c(-c4cccc(-c5ccc(C(F)(F)F)cc5)c4)cccc3c2)c1.[I-] [Example 80]
30 | ≤ 8 | ≤ 8 | C[n+]1cc(-c2cc(-c3ccccc3)cc(-c3ccccc3)c2)cc2ccccc21.[I-] [Example 35]
31 | ≤ 8 |  | CC(C)(C)c1ccc(-c2cccc3cc(-c4ccc([N+](C)(C)C)cc4)ccc23)cc1.[I-] [Example 100]
32 | ≤ 8 |  | COc1cc(CC(=N)N)c(-c2ccc3c(-c4ccc(C(C)(C)C)cc4)cccc3c2)cc1OC [Example 103]
33 | ≤ 8 | 16 | C[n+]1cccc2ccc(-c3ccc(-c4ccccc4)cc3)cc21.[I-] [Example 116]
34 | ≤ 8 |  | COc1cc(-c2cc3ccc(OC)c(OC)c3[n+](C)c2)cc(-c2cccc(C(C)(C)C)c2)c1OC.[I-] [Example 28]
35 | ≤ 8 |  | COc1cc(-c2cc3ccccc3[n+](C)c2)cc(-c2ccc(-c3ccccc3)cc2)c1OC.[I-] [Example 2]
36 | ≤ 8 |  | CC(C)(C)c1ccc(-c2ccc(CN=C(N)N)c3ccccc23)cc1 [Example 40]
37 | ≤ 8 |  | CC(C)(C)c1ccc(-c2cccc3cc(-c4cccc([N+](C)(C)C)c4)ccc23)cc1.[I-] [Example 65]
38 | ≤ 8 |  | COc1cc(-c2cc3ccccc3nc2CN)cc(-c2ccc(C(C)(C)C)cc2)c1OC [Example 31]
39 | ≤ 8 |  | COC(=O)c1ccc(-c2ccc3c(-c4ccc(C(C)(C)C)cc4)cccc3c2)c(CN)c1 [Example 89, methyl 4-(1-(4-t-butylphenyl)naphthalen-6-yl)-3-(aminomethyl)benzoate]
40 | ≤ 8 | ≤ 8 | CN(C)CCNCc1ccccc1-c1ccc2c(-c3ccc(C(C)(C)C)cc3)cccc2c1 [Example 59]
41 | ≤ 8 | ≤ 8 | CC(C)(C)c1ccc(-c2cccc3c(CCN)cccc23)cc1 [Example 36]
42 | ≤ 8 |  | C[N+](C)(C)c1cccc(-c2ccc3c(-c4cc(-c5ccc(F)cc5)cc(-c5ccc(F)cc5)c4)cccc3c2)c1.[I-] [Example 82]
43 | ≤ 8 |  | COc1cc(-c2cc3ccccc3[n+](C)c2)cc(-c2cccc(-c3ccc(F)cc3)c2)c1OC.[I-] [Example 6]
44 | ≤ 8 |  | COc1ccc(-c2ccc3c(-c4ccc(C(C)(C)C)cc4)cccc3c2CNC(=N)N)c(OC)c1OC [Example 58]
45 | ≤ 8 |  | COC(=O)c1ccc(-c2ccc3c(-c4ccc(C(C)(C)C)cc4)cccc3c2)c(CNC(=N)N)c1 [Example 101]
46 | ≤ 8 | ≤ 8 | CC(C)(C)c1ccc(-c2cccc3c(CC(=N)N)cccc23)cc1 [Example 56]
47 | ≤ 8 |  | CC(C)(C)c1ccc(-c2ccc(CCN=C(N)N)c3ccccc23)cc1 [Example 39]

Row | MIC [1] [µg/mL] | MIC [2] [µg/mL] | SMILES
48 | ≤ 8 |  | CN(C)Cc1cccc(-c2ccc3c(-c4cccc(-c5ccccc5)c4)cccc3c2)c1 [Example 71]
49 | ≤ 8 |  | NC(N)=NCc1cccc2c(-c3ccc(C4CC4)cc3)cccc12 [Example 46]
50 | ≤ 8 |  | COc1cc(-c2cc3cc4c(cc3[n+](C)c2)OCO4)cc(-c2ccc(C(C)(C)C)cc2)c1OC.[I-] [Example 26a]
51 | ≤ 8 |  | CC(C)(C)c1ccc(-c2ccc(CCN)c3ccccc23)cc1 [Example 38, 2-(4-(4-(t-butyl)phenyl)naphthalen-1-yl)ethanamine]
52 | ≤ 8 | ≤ 8 | CC(C)(C)c1ccc(-c2cccc3cc(-c4ccccc4CNCCN)ccc23)cc1 [Example 62]
53 | ≤ 8 |  | N=C(N)NCc1cccc2c(-c3ccc(Br)cc3)cccc12 [Example 51, 1-((5-(4-bromophenyl)naphthalen-1-yl)methyl)guanidine]
54 | ≤ 8 |  | COc1cc(C(F)(F)F)ccc1-c1cccc2c(CCN=C(N)N)cccc12 [Example 45]
55 | ≤ 8 |  | C[N+](C)(C)c1cccc(-c2ccc3c(-c4ccc(C(F)(F)F)cc4)cccc3c2)c1.[I-] [Example 97]
56 | ≤ 8 |  | C[N+](C)(C)c1cccc(-c2ccc3c(-c4ccc(-c5ccccc5)cc4)cccc3c2)c1.[I-] [Example 93]
57 | ≤ 8 |  | COC(=O)c1ccc(-c2ccc3c(-c4ccc(C(C)(C)C)cc4)cccc3c2)c(C[N+](C)(C)C)c1.[I-] [Example 84]
58 | ≤ 8 |  | COc1cc(-c2cc3ccc(OC)c(OC)c3[n+](C)c2)cc(-c2ccc(C(C)(C)C)cc2)c1OC.[I-] [Example 30]
59 | ≤ 8 |  | CC(C)(C)c1ccc(-c2cccc(-c3cccc4cc(-c5cccc([N+](C)(C)C)c5)ccc34)c2)cc1.[I-] [Example 78]
60 | ≤ 8 |  | CCC[n+]1cc(-c2cc(OC)c(OC)c(-c3ccc(C4CCCCC4)cc3)c2)cc2cc(OC)c(OC)cc21.[I-] [Example 22]
61 | ≤ 8 |  | COc1cc(-c2cc3ccccc3[n+](C)c2)cc(-c2cc(-c3ccc(F)cc3)cc(-c3ccc(F)cc3)c2)c1OC.[I-] [Example 8]
62 | ≤ 8 |  | C[N+](C)(C)c1cccc(-c2ccc3c(-c4cccc(-c5ccccc5)c4)cccc3c2)c1.[I-] [Example 67]
63 | ≤ 8 |  | N=C(N)NCc1cccc2c(-c3ccc(C(F)(F)F)cc3)cccc12 [Example 53]
64 | ≤ 8 |  | COc1c(CCN)ccc(-c2ccc3c(-c4ccc(C(C)(C)C)cc4)cccc3c2)c1OC.Cl [Example 106]
65 | ≤ 8 | ≤ 8 | COc1cc(-c2cc3ccccc3[n+](C)c2)cc(-c2ccc(C(C)(C)C)cc2)c1OC.[I-] [Example 11]
66 | ≤ 8 |  | N=C(N)NCc1cccc2c(-c3ccc(Cl)cc3)cccc12 [Example 52]
67 | ≤ 8 |  | C[N+](C)(C)c1cccc(-c2ccc3c(-c4ccc(F)cc4)cccc3c2)c1.[I-] [Example 74]
